From ChEMBL document CHEMBL1201862, “PubChem BioAssay data set” (2004)
The source made the active and inactive calls.

How the values were obtained:
[1] = non-specific 3'UTR reporter inhibition in Clone20-Shn3RL – cell-based, Renilla luciferase, cherry-picked, counter-screen for Shn3 inhibitor project, dose response (AID 624133); type: functional
[2] = reduction of Shn3 3'UTR-driven luciferase in osteoblasts – cell-based, Clone20 osteoblasts, firefly luciferase, cherry-picked, dose response (AID 624132); type: functional;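 note: firefly luciferase luminescence from reporter carrying the Shn3 3'UTR in osteoblasts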
Vero [3] = assay: mammalian cell viability reduction – secondary assay, cytotoxicity control for West Nile virus antiviral project, dose response (AID 1650); type: functional; conditions: Chlorocebus sabaeus
Vero [4] = assay: cells; type: functional; conditions: Chlorocebus sabaeus
Prothrombin = Prothrombin (Homo sapiens, UniProt P00734); assay: Thrombin 1536 HTS Dose Response Confirmation. [Related pubchem assays: 1046 (Thrombin 1536 HTS; hits were confirmed in this assay)]; type: functional
Estrogen receptor beta [5] = target: T1, Estrogen receptor beta (Homo sapiens, UniProt Q92731);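 note: recombinant ER-beta bound to coactivator SRC1 peptide in presence of estradiol agonist; inhibitors block coactivator peptide binding and lower the FRET signal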
Estrogen receptor beta [6] = target: T1, Estrogen receptor beta; assay: blockers of SRC-3 recruitment to ERβ – biochemical, ELISA, streptavidin-HRP readout, orthogonal assay, confirmation (AID 1060)
Cytochrome P450 3A4 = Cytochrome P450 3A4 (Homo sapiens, UniProt P08684); conditions: Potency;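 note: confirmatory qHTS run detecting inhibitors and substrates of CYP3A4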
[7] = target: T2, Acyl-homoserine lactone acylase PvdQ (Pseudomonas aeruginosa (strain LESB58), UniProt Q9I194); assay: PvdQ acylase enzyme activity blockers – biochemical, fluorescence, plate reader and imaging, cherry-picks, dose response (AID 493231)
T2 sequence (Q9I194 whole entry): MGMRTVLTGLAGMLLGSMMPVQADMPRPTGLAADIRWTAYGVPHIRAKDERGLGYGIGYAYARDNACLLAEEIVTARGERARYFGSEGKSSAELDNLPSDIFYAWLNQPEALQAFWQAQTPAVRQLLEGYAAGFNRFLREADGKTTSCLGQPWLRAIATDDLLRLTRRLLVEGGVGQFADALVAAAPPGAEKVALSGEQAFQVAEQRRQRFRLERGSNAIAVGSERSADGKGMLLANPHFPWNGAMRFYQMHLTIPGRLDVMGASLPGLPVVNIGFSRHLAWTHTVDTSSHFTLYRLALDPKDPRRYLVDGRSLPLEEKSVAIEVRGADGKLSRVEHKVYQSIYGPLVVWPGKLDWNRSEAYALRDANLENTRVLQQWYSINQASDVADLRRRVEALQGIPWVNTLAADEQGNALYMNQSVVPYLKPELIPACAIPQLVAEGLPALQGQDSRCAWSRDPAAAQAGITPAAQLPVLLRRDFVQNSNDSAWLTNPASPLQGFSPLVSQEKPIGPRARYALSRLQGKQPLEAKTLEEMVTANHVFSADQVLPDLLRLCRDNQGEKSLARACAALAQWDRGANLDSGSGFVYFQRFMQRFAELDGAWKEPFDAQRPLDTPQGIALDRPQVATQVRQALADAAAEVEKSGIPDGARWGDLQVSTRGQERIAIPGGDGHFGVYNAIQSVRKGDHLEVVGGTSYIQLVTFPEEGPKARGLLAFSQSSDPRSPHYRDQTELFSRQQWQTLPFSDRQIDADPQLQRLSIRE

[8] = target: Dual specificity tyrosine-phosphorylation-regulated kinase 1A (Rattus norvegicus, UniProt Q63470); type: biochemical, Homo sapiens
Nonstructural protein 1 = Nonstructural protein 1 (Influenza A virus, UniProt Q194T2); type: functional, Influenza A virus (A/California/07/2009(H1N1))
Protein RecA = target: T3, Protein RecA (Mycobacterium tuberculosis, UniProt P9WHJ3); assay: Fluorescence Cell-Free Homogeneous Dose Retest to Identify Inhibitors of RecA-Intein Splicing Activity. [Related pubchem assays (depositor defined):AID2097, AID2223, AID489010, AID492950]; type: functional
T3 sequence (P9WHJ3 whole entry): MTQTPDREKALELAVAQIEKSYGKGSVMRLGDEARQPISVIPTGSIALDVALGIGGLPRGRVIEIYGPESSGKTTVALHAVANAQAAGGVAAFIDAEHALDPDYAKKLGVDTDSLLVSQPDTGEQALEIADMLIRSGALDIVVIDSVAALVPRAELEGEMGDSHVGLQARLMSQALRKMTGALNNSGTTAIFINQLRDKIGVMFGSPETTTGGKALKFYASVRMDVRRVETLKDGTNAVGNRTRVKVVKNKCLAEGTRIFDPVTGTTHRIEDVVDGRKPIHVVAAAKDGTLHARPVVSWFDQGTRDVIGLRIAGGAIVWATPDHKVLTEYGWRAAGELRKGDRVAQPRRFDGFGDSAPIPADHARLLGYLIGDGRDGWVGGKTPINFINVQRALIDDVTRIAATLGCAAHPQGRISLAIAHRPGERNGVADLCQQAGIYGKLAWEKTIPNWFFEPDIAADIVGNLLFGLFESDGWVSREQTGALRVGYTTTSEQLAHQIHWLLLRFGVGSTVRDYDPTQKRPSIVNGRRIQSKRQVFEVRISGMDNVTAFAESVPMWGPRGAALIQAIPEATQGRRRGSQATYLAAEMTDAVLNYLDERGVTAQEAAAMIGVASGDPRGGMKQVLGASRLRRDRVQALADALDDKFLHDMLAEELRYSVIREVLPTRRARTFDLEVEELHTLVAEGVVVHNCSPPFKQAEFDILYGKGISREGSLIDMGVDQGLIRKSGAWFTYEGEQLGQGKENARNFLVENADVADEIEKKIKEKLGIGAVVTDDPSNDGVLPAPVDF

[9] = target: T4, Replicative DNA helicase DnaB (Mycobacterium tuberculosis, UniProt P9WMR3); assay: DnaB intein splicing inhibitors, dose response, biochemical, cell-free fluorescence (AID 449749); type: functional
T4 sequence (P9WMR3 whole entry): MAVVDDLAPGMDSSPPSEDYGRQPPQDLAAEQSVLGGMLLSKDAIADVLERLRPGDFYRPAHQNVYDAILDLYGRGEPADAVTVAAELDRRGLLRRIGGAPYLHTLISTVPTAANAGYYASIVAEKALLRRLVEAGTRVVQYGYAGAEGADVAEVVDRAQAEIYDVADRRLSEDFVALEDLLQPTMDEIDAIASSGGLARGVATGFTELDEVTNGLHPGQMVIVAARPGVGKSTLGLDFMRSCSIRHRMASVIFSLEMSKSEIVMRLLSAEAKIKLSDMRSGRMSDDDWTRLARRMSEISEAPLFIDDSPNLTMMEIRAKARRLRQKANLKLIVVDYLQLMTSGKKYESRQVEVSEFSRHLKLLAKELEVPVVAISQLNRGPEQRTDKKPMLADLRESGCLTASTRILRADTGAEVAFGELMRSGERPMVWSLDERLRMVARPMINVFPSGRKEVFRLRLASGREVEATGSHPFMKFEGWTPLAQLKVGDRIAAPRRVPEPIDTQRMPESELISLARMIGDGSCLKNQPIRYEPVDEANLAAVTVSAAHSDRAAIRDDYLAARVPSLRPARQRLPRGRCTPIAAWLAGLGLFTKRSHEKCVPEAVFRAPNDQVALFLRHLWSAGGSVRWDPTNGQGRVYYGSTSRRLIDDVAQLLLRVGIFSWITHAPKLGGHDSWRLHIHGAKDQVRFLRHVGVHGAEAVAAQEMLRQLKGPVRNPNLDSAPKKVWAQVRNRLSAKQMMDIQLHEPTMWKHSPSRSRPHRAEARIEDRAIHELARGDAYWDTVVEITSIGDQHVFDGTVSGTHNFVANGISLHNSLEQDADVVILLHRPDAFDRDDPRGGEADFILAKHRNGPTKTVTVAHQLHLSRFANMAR

[10] = target: Eukaryotic translation initiation factor 4E (Mus musculus, UniProt P63073); assay: blockers of eIF4G binding by eIF4E – biochemical, TR-FRET, dose response (AID 855); type: functional;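 note: potency for disrupting eIF4E binding to eIF4GI seen as loss of FRET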
[11] = target: T5, Long-chain-fatty-acid--AMP ligase FadD28 (Mycobacterium tuberculosis, UniProt P9WQ59); assay: Fluorescence polarization aasay to screen for inhibitors that compete for the binding of FadD28 to a bisubstrate Measured in Biochemical System Using Plate Reader - 2147-01_Inhibitor_Dose_CherryPick_Activity.; type: functional, Mycobacterium tuberculosis H37Rv
T5 sequence (P9WQ59 whole entry): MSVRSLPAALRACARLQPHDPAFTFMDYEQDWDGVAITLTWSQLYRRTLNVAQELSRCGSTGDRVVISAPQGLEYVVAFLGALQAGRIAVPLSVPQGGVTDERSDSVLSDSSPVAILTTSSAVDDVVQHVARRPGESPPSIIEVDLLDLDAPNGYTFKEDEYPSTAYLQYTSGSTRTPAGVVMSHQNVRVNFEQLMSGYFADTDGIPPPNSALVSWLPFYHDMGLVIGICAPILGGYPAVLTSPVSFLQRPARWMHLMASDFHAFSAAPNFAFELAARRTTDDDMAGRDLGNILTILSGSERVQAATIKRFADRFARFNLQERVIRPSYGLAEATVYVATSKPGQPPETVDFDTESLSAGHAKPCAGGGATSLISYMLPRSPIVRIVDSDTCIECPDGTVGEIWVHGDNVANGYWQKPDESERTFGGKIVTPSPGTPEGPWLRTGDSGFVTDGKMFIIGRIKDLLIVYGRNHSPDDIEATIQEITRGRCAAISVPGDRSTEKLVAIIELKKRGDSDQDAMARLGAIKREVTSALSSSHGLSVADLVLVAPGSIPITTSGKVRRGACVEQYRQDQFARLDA

[12] = target: T6, Heat shock factor protein 1 (Mus musculus, UniProt P38532); assay: enhancement of HSF1-driven luciferase signal – cell-based, NIH3T3, luminescence, dose retest, confirmation (AID 435004); type: functional;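 note: stress induced by proteasome inhibitor MG132 added 30 min after compound; luciferase reporter driven by HSF1 response element in NIH3T3 cells; actives raise luminescence as potentiators of the MG132 stress response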
T6 sequence (P38532 whole entry): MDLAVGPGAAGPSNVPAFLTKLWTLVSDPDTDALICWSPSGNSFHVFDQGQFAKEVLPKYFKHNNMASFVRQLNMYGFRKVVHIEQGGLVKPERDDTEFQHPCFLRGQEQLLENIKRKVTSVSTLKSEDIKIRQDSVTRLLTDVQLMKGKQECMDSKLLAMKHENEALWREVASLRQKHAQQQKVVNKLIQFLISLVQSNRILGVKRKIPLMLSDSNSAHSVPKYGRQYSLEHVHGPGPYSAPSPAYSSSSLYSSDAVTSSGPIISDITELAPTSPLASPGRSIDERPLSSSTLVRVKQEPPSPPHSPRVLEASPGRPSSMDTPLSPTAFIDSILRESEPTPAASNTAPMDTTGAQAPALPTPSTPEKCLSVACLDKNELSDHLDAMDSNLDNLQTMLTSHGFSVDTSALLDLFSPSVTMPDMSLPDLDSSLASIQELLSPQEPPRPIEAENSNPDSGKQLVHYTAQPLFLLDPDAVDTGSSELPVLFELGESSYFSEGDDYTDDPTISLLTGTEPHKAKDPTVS

Bcl-2-like protein 10 = target: T7, Bcl-2-like protein 10 (Homo sapiens, UniProt Q9HD36); assay: Bcl-B/TR3 peptide binding disruption – biochemical, fluorescence polarization, FITC-TR3 peptide, selectivity assay for Bfl-1 inhibitor project, primary screen (AID 748);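 note: fluorescence polarization from a fluorescein-labelled TR3 peptide binding purified Bcl-B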
T7 sequence (Q9HD36 whole entry): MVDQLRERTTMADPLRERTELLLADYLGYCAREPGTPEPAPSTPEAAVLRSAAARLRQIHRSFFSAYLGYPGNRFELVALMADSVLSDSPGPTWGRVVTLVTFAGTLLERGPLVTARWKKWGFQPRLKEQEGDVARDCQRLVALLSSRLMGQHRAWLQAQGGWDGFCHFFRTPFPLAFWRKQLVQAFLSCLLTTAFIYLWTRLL

Trypsin = Trypsin (Sus scrofa, UniProt P00761); assay: trypsin protease activity blockade – biochemical, quenched peptide fluorescence, cherry-pick, selectivity assay for Rce1 protease inhibitor project, dose response (AID 488789)
[13] = toxicity to human hepatoma HepG2 cells – cell-based, cherry-picked samples, cytotoxicity control, dose response (AID 1159577); type: functional
[14] = P. falciparum Dd2 growth inhibitors, dose response, SYBR Green, cherry-picked samples (AID 1159567); type: functional, cell-based

T1 sequence (Q92731 whole entry): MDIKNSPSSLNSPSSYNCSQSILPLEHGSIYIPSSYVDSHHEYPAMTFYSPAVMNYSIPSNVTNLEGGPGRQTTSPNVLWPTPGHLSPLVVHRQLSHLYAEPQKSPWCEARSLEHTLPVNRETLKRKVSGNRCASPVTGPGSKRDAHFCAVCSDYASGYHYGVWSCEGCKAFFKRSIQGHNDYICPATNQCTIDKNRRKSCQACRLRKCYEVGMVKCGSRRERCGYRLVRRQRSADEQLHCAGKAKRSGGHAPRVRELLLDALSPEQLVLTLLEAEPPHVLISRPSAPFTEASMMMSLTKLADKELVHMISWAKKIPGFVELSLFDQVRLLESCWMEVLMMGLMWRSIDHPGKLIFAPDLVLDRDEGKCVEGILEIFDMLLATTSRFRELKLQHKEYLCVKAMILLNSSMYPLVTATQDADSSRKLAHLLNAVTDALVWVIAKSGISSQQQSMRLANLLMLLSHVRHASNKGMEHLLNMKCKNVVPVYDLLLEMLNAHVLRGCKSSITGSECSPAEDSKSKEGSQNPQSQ
Cytochrome P450 3A4, sequence (P08684 whole entry): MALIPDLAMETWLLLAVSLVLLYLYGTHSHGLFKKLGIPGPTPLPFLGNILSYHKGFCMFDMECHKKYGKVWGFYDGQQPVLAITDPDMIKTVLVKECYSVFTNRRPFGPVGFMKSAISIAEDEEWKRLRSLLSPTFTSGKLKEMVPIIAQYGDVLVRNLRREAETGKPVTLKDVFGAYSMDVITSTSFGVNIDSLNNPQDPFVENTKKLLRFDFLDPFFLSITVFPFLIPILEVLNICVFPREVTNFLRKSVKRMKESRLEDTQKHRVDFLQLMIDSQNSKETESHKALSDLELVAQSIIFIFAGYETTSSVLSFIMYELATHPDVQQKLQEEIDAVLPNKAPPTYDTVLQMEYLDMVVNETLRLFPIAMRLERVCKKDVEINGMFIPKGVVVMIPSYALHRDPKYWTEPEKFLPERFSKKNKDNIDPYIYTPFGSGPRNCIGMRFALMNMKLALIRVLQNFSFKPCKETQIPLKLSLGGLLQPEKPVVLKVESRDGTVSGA
Eukaryotic translation initiation factor 4E, sequence (P63073 whole entry): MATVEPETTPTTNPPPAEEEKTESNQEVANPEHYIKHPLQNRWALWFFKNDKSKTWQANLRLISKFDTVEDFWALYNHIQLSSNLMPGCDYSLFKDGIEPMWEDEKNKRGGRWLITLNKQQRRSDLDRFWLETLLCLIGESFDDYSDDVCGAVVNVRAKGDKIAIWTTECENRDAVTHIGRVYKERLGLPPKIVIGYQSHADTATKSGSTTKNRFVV
Nonstructural protein 1, sequence (Q194T2 whole entry): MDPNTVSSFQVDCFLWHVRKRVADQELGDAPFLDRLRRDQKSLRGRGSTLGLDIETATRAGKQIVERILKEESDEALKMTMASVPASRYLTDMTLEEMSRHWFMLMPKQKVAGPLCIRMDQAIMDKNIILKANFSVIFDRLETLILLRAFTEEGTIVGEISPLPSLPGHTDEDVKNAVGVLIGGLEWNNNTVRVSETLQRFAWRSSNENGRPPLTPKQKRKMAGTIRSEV
Trypsin, sequence (P00761 whole entry): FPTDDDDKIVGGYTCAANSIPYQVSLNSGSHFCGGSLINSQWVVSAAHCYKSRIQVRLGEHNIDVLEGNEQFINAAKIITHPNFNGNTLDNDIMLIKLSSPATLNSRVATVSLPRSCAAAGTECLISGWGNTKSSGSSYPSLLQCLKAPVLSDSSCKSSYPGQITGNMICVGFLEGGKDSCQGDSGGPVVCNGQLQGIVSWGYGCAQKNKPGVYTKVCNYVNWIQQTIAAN

Cc1ccc(Cn2ccc(NC(=O)c3nn(C)cc3[N+](=O)[O-])n2)cc1
AC50 [1]: 27.3 µM (active) | AC50 [2]: 4.09 µM (active) | CC50 (Vero [3]): 11.6 µM (active) | CC50 (Vero [4]): 13.8 µM (active)

CC(Nc1nc(O)c2c(ncn2Cc2ccccc2)n1)C(=O)O (configuration not stated)
IC50 (Prothrombin): > 50 µM (not active)

Cc1cc2n(c1)CCn1c(C)ccc1-2
IC50 (Estrogen receptor beta [5]): 3.91 µM (active) | IC50 (Estrogen receptor beta [6]): 3.06 µM (not active)

COC(=O)NC(c1cccc(C)c1)C(C(C)=O)C(=O)OC (configuration not stated)
AC50 (Cytochrome P450 3A4): 7.94 µM (inconclusive)

COc1ccc(S(=O)(=O)N2CCOCC2)cc1NC(=O)COC(=O)c1ccc(C)s1
IC50 (Prothrombin): 0.408 µM (active)

Cc1cc(-c2ccc(/N=N/c3cc(S(=O)(=O)O)c4ccccc4c3N)c(C)c2)ccc1/N=N/c1cc(S(=O)(=O)O)c2ccccc2c1N
AC50 (Cytochrome P450 3A4): 25.1 µM (inconclusive)

c1cnc2ccc(-c3ccc4ncccc4c3)cc2c1
AC50 [7]: 10.7 µM (active) | AC50 [8]: 0.189 µM (active)

O=C1c2ccccc2-c2onc3ccc(N4CCCC4)c1c23
IC50 (Nonstructural protein 1): 23.6 µM (active) | EC50 (Protein RecA): 0.606 µM (active) | AC50 [9]: > 380 µM (inactive) | IC50 [10]: 50 µM (inactive) | AC50 [11]: 15.1 µM (active) | AC50 [8]: 1.67 µM (active) | EC50 [12]: > 260 µM (inactive)

COc1ccc(N(C(=O)c2ccco2)S(=O)(=O)c2cccc([N+](=O)[O-])c2)cc1
IC50 (Prothrombin): 2.18 µM (active)

COCc1cc(C2SCC(=O)Nc3c2c(O)nn3C(C)C)ccc1OC (configuration not stated)
IC50 (Bcl-2-like protein 10): > 100 µM (inactive)

CC(=O)Nc1ccc(OC(=O)CC2SC(=O)NC2=O)cc1 (configuration not stated)
IC50 (Estrogen receptor beta [5]): 8.53 µM (active) | IC50 (Estrogen receptor beta [6]): < 0.023 µM (not active) | IC50 (Bcl-2-like protein 10): > 100 µM (inactive)

COc1ccc2oc(-c3ccccc3)c(C(=O)N3CCOCC3)c2c1
AC50 (Trypsin): 4.55 µM (active)

O=C(Nc1cc(F)ccc1F)N1CCCCN2[C@@H](CO)[C@@H](c3ccc(-c4ccccc4)cc3)[C@@H]2C1
AC50 [13]: 9.99 µM (active) | AC50 [14]: 2.56 µM (active)
